Laboratory results reported in PubChem BioAssay (NCI).
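The compound was tested at five concentrations on cells cultured in 96-well plates, with a 48-hour exposure period. TGI: total growth inhibition.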

Assays:
Assay in all cases: NCI tumour cell line growth inhibition, 48 h
CCRF-CEM leukemia = system: CCRF-CEM leukemia
A498 renal = system: A498 renal
786-0 renal = system: 786-0 renal
NCI-H522 lung = system: NCI-H522 lung
EKVX NSCLC = system: EKVX NSCLC
MALME-3M melanoma = system: MALME-3M melanoma
UO-31 renal = system: UO-31 renal
NCI-H226 lung = system: NCI-H226 lung
MCF7 breast = system: MCF7 breast
SF-295 CNS = system: SF-295 CNS
RPMI-8226 leukemia = system: RPMI-8226 leukemia
SK-MEL-5 melanoma = system: SK-MEL-5 melanoma
OVCAR-3 ovarian = system: OVCAR-3 ovarian
SK-OV-3 ovarian = system: SK-OV-3 ovarian
M14 melanoma = system: M14 melanoma
OVCAR-5 ovarian = system: OVCAR-5 ovarian
LOX IMVI melanoma = system: LOX IMVI melanoma
HCC-2998 colon = system: HCC-2998 colon
NCI-H23 lung = system: NCI-H23 lung
UACC-62 melanoma = system: UACC-62 melanoma
CAKI-1 renal = system: CAKI-1 renal
SF-539 CNS = system: SF-539 CNS
SNB-75 CNS = system: SNB-75 CNS
HL-60(TB) leukemia = system: HL-60(TB) leukemia
COLO 205 colon = system: COLO 205 colon
NCI-H460 lung = system: NCI-H460 lung
OVCAR-8 ovarian = system: OVCAR-8 ovarian
OVCAR-4 ovarian = system: OVCAR-4 ovarian
HCT-15 colon = system: HCT-15 colon
TK-10 renal = system: TK-10 renal
A549 NSCLC = system: A549 NSCLC
RXF 393 renal = system: RXF 393 renal
SR leukemia = system: SR leukemia
K-562 leukemia = system: K-562 leukemia
HT29 colon = system: HT29 colon
IGROV1 ovarian = system: IGROV1 ovarian
MDA-MB-231 breast = system: MDA-MB-231 breast
BT-549 breast = system: BT-549 breast
PC-3 prostate = system: PC-3 prostate
SW-620 colon = system: SW-620 colon
NCI/ADR-RES ovarian = system: NCI/ADR-RES ovarian
HCT-116 colon = system: HCT-116 colon
UACC-257 melanoma = system: UACC-257 melanoma
SF-268 CNS = system: SF-268 CNS
MDA-MB-435 = system: MDA-MB-435
SK-MEL-2 melanoma = system: SK-MEL-2 melanoma
ACHN renal = system: ACHN renal
SK-MEL-28 melanoma = system: SK-MEL-28 melanoma
U251 CNS = system: U251 CNS
HOP-62 NSCLC = system: HOP-62 NSCLC
KM12 colon = system: KM12 colon
T-47D breast = system: T-47D breast
HS 578T breast = system: HS 578T breast
SNB-19 CNS = system: SNB-19 CNS
MOLT-4 leukemia = system: MOLT-4 leukemia
MDA-N = system: MDA-N
SN12C renal = system: SN12C renal
HOP-92 NSCLC = system: HOP-92 NSCLC
DU-145 prostate = system: DU-145 prostate

## N#Cc1c(O)c(C=Nc2ccc(Cl)cc2)c(=O)n2c1[nH]c1ccccc12
CCRF-CEM leukemia
  TGI: > 100 µM
A498 renal
  TGI: > 100 µM
786-0 renal
  TGI: > 100 µM
NCI-H522 lung
  TGI: > 100 µM
EKVX NSCLC
  TGI: > 100 µM
MALME-3M melanoma
  TGI: > 100 µM
UO-31 renal
  TGI: > 100 µM
NCI-H226 lung
  TGI: > 100 µM
MCF7 breast
  TGI: > 100 µM
SF-295 CNS
  TGI: > 100 µM
RPMI-8226 leukemia
  TGI: > 100 µM
SK-MEL-5 melanoma
  TGI: > 100 µM
OVCAR-3 ovarian
  TGI: > 100 µM
SK-OV-3 ovarian
  TGI: > 100 µM
M14 melanoma
  TGI: > 100 µM
OVCAR-5 ovarian
  TGI: > 100 µM
LOX IMVI melanoma
  TGI: > 100 µM
HCC-2998 colon
  TGI: > 100 µM
NCI-H23 lung
  TGI: > 100 µM
UACC-62 melanoma
  TGI: > 100 µM
CAKI-1 renal
  TGI: > 100 µM
SF-539 CNS
  TGI: > 100 µM
SNB-75 CNS
  TGI: > 100 µM
HL-60(TB) leukemia
  TGI: > 100 µM
COLO 205 colon
  TGI: > 100 µM
NCI-H460 lung
  TGI: > 100 µM
OVCAR-8 ovarian
  TGI: > 100 µM
OVCAR-4 ovarian
  TGI: > 100 µM
HCT-15 colon
  TGI: > 100 µM
TK-10 renal
  TGI: > 100 µM
A549 NSCLC
  TGI: > 100 µM
RXF 393 renal
  TGI: > 100 µM
SR leukemia
  TGI: > 100 µM
K-562 leukemia
  TGI: > 100 µM
HT29 colon
  TGI: > 100 µM
IGROV1 ovarian
  TGI: > 100 µM
MDA-MB-231 breast
  TGI: > 100 µM
BT-549 breast
  TGI: > 100 µM
PC-3 prostate
  TGI: > 100 µM
SW-620 colon
  TGI: > 100 µM
NCI/ADR-RES ovarian
  TGI: > 100 µM
HCT-116 colon
  TGI: > 100 µM
UACC-257 melanoma
  TGI: > 100 µM
SF-268 CNS
  TGI: > 100 µM
MDA-MB-435
  TGI: > 100 µM
SK-MEL-2 melanoma
  TGI: > 100 µM
ACHN renal
  TGI: > 100 µM
SK-MEL-28 melanoma
  TGI: > 100 µM
U251 CNS
  TGI: > 100 µM
HOP-62 NSCLC
  TGI: > 100 µM
KM12 colon
  TGI: > 100 µM
T-47D breast
  TGI: > 100 µM
HS 578T breast
  TGI: > 100 µM
SNB-19 CNS
  TGI: > 100 µM
MOLT-4 leukemia
  TGI: > 100 µM
MDA-N
  TGI: > 100 µM
SN12C renal
  TGI: > 100 µM
HOP-92 NSCLC
  TGI: > 100 µM
DU-145 prostate
  TGI: > 100 µM

## O=C1Nc2ccc(Br)cc2C1=Nc1ccc2c(c1)OCO2
CCRF-CEM leukemia
  TGI: 55.3 µM
A498 renal
  TGI: 97.3 µM
786-0 renal
  TGI: 48.2 µM
NCI-H522 lung
  TGI: 43 µM
EKVX NSCLC
  TGI: 74.8 µM
MALME-3M melanoma
  TGI: 35.6 µM
UO-31 renal
  TGI: 44.1 µM
NCI-H226 lung
  TGI: 60.8 µM
MCF7 breast
  TGI: 37 µM
SF-295 CNS
  TGI: 78.7 µM
RPMI-8226 leukemia
  TGI: 63.2 µM
SK-MEL-5 melanoma
  TGI: 30 µM
OVCAR-3 ovarian
  TGI: 61.8 µM
SK-OV-3 ovarian
  TGI: > 100 µM
M14 melanoma
  TGI: 40.6 µM
OVCAR-5 ovarian
  TGI: 51.9 µM
LOX IMVI melanoma
  TGI: 64.9 µM
HCC-2998 colon
  TGI: 30 µM
NCI-H23 lung
  TGI: > 100 µM
UACC-62 melanoma
  TGI: 29.1 µM
CAKI-1 renal
  TGI: 64.5 µM
SF-539 CNS
  TGI: 37.3 µM
SNB-75 CNS
  TGI: 98.4 µM
HL-60(TB) leukemia
  TGI: 43.6 µM
COLO 205 colon
  TGI: 31.9 µM
NCI-H460 lung
  TGI: 67.9 µM
OVCAR-8 ovarian
  TGI: > 100 µM
OVCAR-4 ovarian
  TGI: 17.1 µM
HCT-15 colon
  TGI: 53.4 µM
TK-10 renal
  TGI: 59.6 µM
A549 NSCLC
  TGI: > 100 µM
RXF 393 renal
  TGI: 38.9 µM
SR leukemia
  TGI: 73.5 µM
K-562 leukemia
  TGI: 61.6 µM
HT29 colon
  TGI: 39.1 µM
IGROV1 ovarian
  TGI: > 100 µM
MDA-MB-231 breast
  TGI: 39.2 µM
BT-549 breast
  TGI: 50.5 µM
PC-3 prostate
  TGI: 33.6 µM
SW-620 colon
  TGI: 74.1 µM
NCI/ADR-RES ovarian
  TGI: 85.8 µM
HCT-116 colon
  TGI: 33.6 µM
UACC-257 melanoma
  TGI: 34.8 µM
SF-268 CNS
  TGI: > 100 µM
MDA-MB-435
  TGI: 22.4 µM
SK-MEL-2 melanoma
  TGI: 35.3 µM
ACHN renal
  TGI: 68.7 µM
SK-MEL-28 melanoma
  TGI: > 100 µM
U251 CNS
  TGI: 25.3 µM
HOP-62 NSCLC
  TGI: 44.5 µM
KM12 colon
  TGI: 44.5 µM
T-47D breast
  TGI: > 100 µM
HS 578T breast
  TGI: 98.7 µM
SNB-19 CNS
  TGI: > 100 µM
MOLT-4 leukemia
  TGI: 50.2 µM
MDA-N
  TGI: 30.4 µM
SN12C renal
  TGI: 34.4 µM
HOP-92 NSCLC
  TGI: > 100 µM
DU-145 prostate
  TGI: > 100 µM
